# Like-named read-outs stand apart in the source and are kept apart here.
# Assays:
# [1] = treatment of second stage infection (CNS infection); estimated; cited from earlier work
# [2] = test system: Trypanosoma brucei brucei strain 427–221; assay: Trypanosome screening assay (CellTiter-Glo ATP bioluminescence, 48 h); format: cell-based; settings: Trypanosoma brucei, read-out: T.b.b IC50
# Procedure: Trypanosoma brucei brucei strain 427–221 were grown at 37°C, 5% CO2 in HMI-9 medium containing 10% Fetal Bovine Serum, 10% Serum Plus (JRH Inc., Lenexa, KS,USA) and penicillin/streptomycin.
# T.b.b. 427–221 were diluted to 2.10^4 per ml in complete HMI-9 medium and aliquoted in Greiner sterile 384-well flat white opaque culture plates using a WellMate cell dispenser from Matrix Tech. (Hudson, NH, USA). Test compounds were serially diluted in dimethyl sulfoxide (DMSO) and added to the assay plates with the robotic dispenser Biomek FXp liquid handler (Beckman Coulter). Thimerosal (2 µM final concentration) was added as a positive control and DMSO as a negative control (1% final concentration). Trypanosomes were incubated with compounds for 48 hours at 37°C with 5% CO2 before monitoring cell viability as previously described. Briefly, trypanosomes were lysed in the wells by adding 25 µL of CellTiter-GloTM (Promega). The lysed trypanosomes were placed on an orbital shaker at room temperature for 2 minutes. After lysis, the resulting ATP-bioluminescence was measured at room temperature using an Analyst HT plate reader (Molecular Devices). Percentage inhibition of parasite growth was calculated for each well as [1−(RLUx−RLU+)/(RLU−−RLU+)]*100 where RLUx, RLU+ and RLU− are respectively the Relative Light Units for each well, positive (thimerosal) and negative (DMSO) controls. A screening window coefficient, denoted Z′ factor, was used to evaluate the performance of the assay. The Z′ factor, calculated as 1−(3σc++3σc−)/(μc+−μc−) where σc+, σc−, μc+ and μc− are respectively the standard deviation and mean values of positive and negative controls, is reflective of the assay signal dynamic range and the data variation associated with signal measurement. IC50's were calculated using Prism (GraphPad).
# T.b.b 427–221 = assay: Live trypanosome fluorescence imaging; format: cell-based, Trypanosoma brucei brucei; settings: 20 µM, 2 hours, washed, 1 hour compound-free medium
# Procedure: To explore the intracellular of distribution the coumarin-labeled derivative 30, parasites were incubated with 20 µM of 30 for 2 hours, washed once, and incubated in compound-free medium for 1 hour prior to microscopy. […] Although visualization of labeled merulin A in live cell imaging is an encouraging observation, further experiments are required to determine the precise localization and potential function of these compounds against T. brucei.
# T.b.b 427–221 diluted to […] in complete HMI-9 medium were incubated with either 20 µM of compound 30, 20 µM of the free coumarin dye or 30 µM of compound 17 at 37°C for 2 hours. The parasites were then washed once with complete HMI-9 medium and incubated in compound-free complete HMI-9 medium for 1 additional hour. Parasites were directly mounted under coverslips and viewed with 100×-oil immersion on a Zeiss Laser Confocal microscope LSM 510 Meta.
# HeLa cells = assay: HeLa toxicity screening assay (nuclei count by imaging, 17 h); format: cell-based, human; settings: for IC50: Homo sapiens, HeLa
# Procedure: (§1) HeLa cells were plated at a density of 2,000 cells per well into two 384 well clear bottom plates (Costar 3712) in DMEM with 10% FBS. After 24 hours incubation at 37°C with 5% CO2 the cells were pinned with 200 nL of a two-fold serial dilution of merulin analogues. After 17 hours of treatment at 37°C in 5% CO2 the plates were fixed with 4% formaldehyde and washed with PBS (BioTek ELx405). After 10 minutes in PBS with 0.5% TritonX-100 each plate was washed and blocked with 2% Bovine Serum Albumin in PBS. Nuclei were stained with Hoechst 33342 then washed and placed in 40 µL of PBS with 0.1% sodium azide. Plates were imaged using the ImageXpress Micro epifluorescent scope (Molecular Devices). MetaXpress software was used to quantify total number of cells and IC50s were calculated using Prism (GraphPad).
# T98-G cells = assay: Glioblastoma toxicity screening assay (nuclei count by imaging, 17 h); format: cell-based; settings: Homo sapiens, T98G; Figure 4
# Procedure: as §1, with “T98-G cells (ATTC” for “HeLa cells were”, “T98-G cells (ATTC number: CRL-1690) were plated” for “HeLa cells were plated”
SMILES,"IC50 ([2]; Figure 4, bloodstream form) [µM]",fluorescence detected in live parasites (T.b.b 427–221),IC50 (HeLa cells; Figure 4) [µM],IC50 (T98-G cells) [µM],also measured
"Nc1nc(N)nc(Nc2ccc([As]3SCC(CO)S3)cc2)n1 (stereo not drawn) [Melarsoprol, reference compound]",–,–,–,–,mortality rate due to drug-associated toxicity [1]: three to ten; IC50 [2]: 0.002 µM
"CC1(C)CCC(=O)[C@@]2(C)OO[C@@H]3C[C@@]12CC[C@H]3O [compound 1, merulin A]",–,No fluorescence was detected,> 50,> 50,IC50 ([2]; Table 3): 4 µM
"CC1(C)CCC(=O)[C@@]2(C)OO[C@H]3C[C@@]12CC[C@H]3OC(=O)c1ccc(N2CCCCC2)nc1 [compound 26, (3S,4R,6aS,10aS)-7,7,10a-trimethyl-10-oxooctahydro-3H-3,6a-methanobenzo[c][1,2]dioxocin-4-yl 6-(piperidin-1-yl)nicotinate]",0.21,–,24,15,–
"CN(C)c1ccc2c(CC(=O)O[C@@H]3CC[C@@]45C[C@@H]3OO[C@]4(C)C(=O)CCC5(C)C)cc(=O)oc2c1 [compound 30, (3S,4R,6aS,10aS)-7,7,10a-trimethyl-10-oxooctahydro-3H-3,6a-methanobenzo[c][1,2]dioxocin-4-yl 2-(7-(dimethylamino)-2-oxo-2H-chromen-4-yl)acetate]",–,Diffuse cytoplasmic fluorescent signal,–,> 50,SI (HeLa cells; HeLa vs T. brucei): > 125; IC50 (HeLa cells): > 50 µM; IC50 ([2]; Table 3): 0.42 µM
"CN(C)c1ccc2c(CC(=O)NCCNC(=O)CCc3ccccc3)cc(=O)oc2c1 [compound 31, N-(2-(2-(7-(dimethylamino)-2-oxo-2H-chromen-4-yl)acetamido)ethyl)-3-phenylpropanamide]",–,No fluorescence was detected,–,–,–

# More lines, main results first:
"IC50 ([2]; Figure 4, bloodstream form) [µM]",SMILES,fluorescence detected in live parasites (T.b.b 427–221),IC50 (HeLa cells; Figure 4) [µM],IC50 (T98-G cells) [µM],also measured
0.16,"CC(C)(C)OC(=O)N1CCC(CC(=O)O[C@@H]2CC[C@@]34C[C@@H]2OO[C@]3(C)C(=O)CCC4(C)C)CC1 [compound 27, tert-butyl-4-(2-oxo-2-(((3S,4R,6aS,10aS)-7,7,10a-trimethyl-10-oxooctahydro-3H-3,6a-methanobenzo[c][1,2]dioxocin-4-yl)oxy)ethyl)piperidine-1-carboxylate]",–,33,> 50,–
0.16,"CC1(C)CCC(=O)[C@@]2(C)OO[C@H]3C[C@@]12CC[C@H]3OC(=O)CC1CCNCC1 [compound 28, (3S,4R,6aS,10aS)-7,7,10a-trimethyl-10-oxooctahydro-3H-3,6a-methanobenzo[c][1,2]dioxocin-4-yl 2-(piperidin-4-yl)acetate]",–,21,> 50,–
> 20,"CC1(C)CCC(=O)[C@@]2(C)OO[C@H]3C[C@@]12CC[C@H]3OC(=O)CN [compound 29, (3S,4R,6aS,10aS)-7,7,10a-trimethyl-10-oxooctahydro-3H-3,6a-methanobenzo[c][1,2]dioxocin-4-yl 2-aminoacetate]",–,> 50,> 50,–
